We go through two compounds from patent publication US6919327B2, “Texaphyrin coordination compounds and uses thereof” (Pharmacyclics, Inc., priority 2000, dated 2005).

The test system of this assay is HepG2 cells. In words: GdTex / LuTex cell association study in HepG2 cells. The class given is cell-based. To be noted: 50 μM, 4 hours. Here is the method: The absorption of GdTex and LuTex, using different sources of the respective texaphyrin, in HepG2 cells was determined, by comparing absorption for GdTex and LuTex in the cell line in medium alone, in medium containing ascorbic acid, and using GdTex and LuTex that had been premixed with ascorbate for a period of time before exposure to the cell line.
The HepG2 tumor cell line, a hepatocellular carcinoma, was obtained from the American Type Culture Collection (ATCC), Manassas, Va. (Catalog # HB-8065). The HepG2 cells were maintained in Eagle's Minimal Essential medium with Earl's BSS and 2 mM L-glutamine (EMEM) that is modified by ATCC to contain 1.0 mM sodium pyruvate, 0.1 mM nonessential amino acids, and 1.5 g/L sodium bicarbonate (ATCC, Cat. # 30-2003) and supplemented with 10% fetal bovine serum (FBS) FBS (Hyclone, Logan, Utah, Lot # AHF8559) and 100U penicillin/100 ug/ml streptomycin (Sigma, St. Louis, Mo.). Cells are fed 1 to 2 times weekly and passed at 3,000,000 cells per 75 cm tissue culture flask (Costar). Cells are passed using 0.25% trypsin, 0.02% EDTA solution (50/50 PBS/trypsin (Sigma)). Cells used were at the 96th passage at the time of use.
HepG2 Cells were plated at a density of 500,000 cells per dish in 100 mm tissue culture dishes containing 10 mL of RPMI media (Gibco, Rockville, Md.) supplemented with 10% fetal bovine serum (Lot# AJC9908), and 100 U/mL penicillin/100 ug/mL streptomycin (Lot # 50K2308, Sigma, St. Louis, Mo.). Cells were plated out 1 to 2 days prior to treating with motexafin gadolinium.
The day prior to treating the dishes with GdTex (9-19-00), an “aged” solution was prepared containing 50 μM GdTex, 100 μM ascorbate, and Catalase (at a concentration 1:1000 of the stock solution concentration provided by the vendor). This solution was incubated at 37° C. 5% CO2 for approximately 24 hours prior to addition to the appropriate test dishes.
On the day of treatment, test solutions were prepared as shown in the Table I below in pre-incubated medium. […]

The mark [1] stands for this setting: freshly prepared solutions made in the presence of ascorbate (100 μM).

In the case of `CC(=O)[O-].CC(=O)[O-].CCc1c(CC)c2cc3nc(cnc4cc(OCCOCCOCCOC)c(OCCOCCOCCOC)cc4ncc4nc(cc1[n-]2)C(CCCO)=C4C)C(C)=C3CCCO.O.[Lu+3]` [LuTex, motexafin lutetium], under setting [1], the “association with HepG2 cells” value is “comparable levels of association”. In the case of `CC(=O)[O-].CC(=O)[O-].CCc1c(CC)c2cc3nc(cnc4cc(OCCOCCOCCOC)c(OCCOCCOCCOC)cc4ncc4nc(cc1[n-]2)C(CCCO)=C4C)C(C)=C3CCCO.O.[Gd+3]` [GdTex, motexafin gadolinium], the “association with HepG2 cells” value is recorded as “comparable levels of association” under setting [1] and “smaller than corresponding LuTex cell association” (in the absence of ascorbate).
